Measurements published in publication PMC7058788, “GLI1 Inhibitor SRI-38832 Attenuates Chemotherapeutic Resistance by Downregulating NBS1 Transcription in BRAF^V600E Colorectal Cancer” (Frontiers in Oncology, 2020).
Several values for one entry are separate records, joined by “and”; a condition that tells them apart may be missing. Equal values may be shown once. Values belong to the molecule of their own block, whether it stands above or below them.

Tests used:
HCT116 [1] = assay: Annexin V/PI flow cytometry, cell death; format: cell-based, human; conditions: 10 and 20 μM, 72 h; low GLI1 and NBS1
Protocol: (§1) Cells were treated, in duplicate, as described in the figure legends. At the end of treatment, cells were collected by trypsinization and incubated with Annexin V FITC (BD Biosciences) and PI (Sigma) prior to analysis using a FACS Calibur flow cytometer. Data was analyzed using FlowJo software.

SW480 = assay: Annexin V/PI flow cytometry, cell death; format: cell-based, human; conditions: 10 and 20 μM, 72 h; low GLI1 and NBS1
Protocol: as §1

HCT8 [2] = assay: Annexin V/PI flow cytometry, cell death; format: cell-based, human; conditions: 10 and 20 μM, 72 h; high GLI1 and NBS1
Protocol: as §1

CRC = conditions: 5-FU and its combinational treatment (FOLFOX), in the clinic; cited from earlier work
HT29 [3] = assay: Annexin V/PI flow cytometry, cell death/apoptosis; format: cell-based
Protocol: as §1

NBS1 = assay: Western blot analysis of MRN components and damage/apoptosis markers in HT29 cells; format: cell-based, human; conditions: HT29, 20 μM, 72 h
Protocol: Cells were seeded in six-well plates and cultured until 70–80% confluent in 10% FBS-supplemented RPMI medium with L-glutamine and maintained at 37°C with 5% CO2. The cells were then treated with/without GANT61, SRI-38832, or 5-FU as indicated in the figure legends, and protein isolates were analyzed by Western blot. Briefly, 15 μg of protein was loaded and separated on a SDS-PAGE gel. Proteins were transferred to polyvinylidene difluoride (PVDF) membranes overnight. Membranes were washed in TBS-T, blotted in primary antibody overnight at 4°C, and subsequently washed and blotted with HRP-linked secondary antibody for 1 h. Membranes were developed and images were taken on an ImageQuant LAS 4000.

HCT116 [4] = assay: COMET assay, DNA damage by tail length; format: cell-based, human; conditions: 20 μM, 48 h
Protocol: (§2) Cells were treated with/without GANT61 (20 μM), SRI-38832 (20 μM) or 5-FU (20 μM) for 48 h, subsequently trypsinized and washed in PBS before being added to preheated (37°C), low-melting point agarose. The solution was pipetted onto slides pre-coated with 1% agarose. The chilled slides were allowed to lyse for 40 min at 4°C in 2.5 M NaCl,100 mM EDTA (pH 10), 10 mM Tris Base, 1% SDS, 1% Triton X−100 prior to immersion in alkaline electrophoresis solution (300 mM NaOH, 1 mM EDTA, pH 13). After 30 min, slides were placed into a horizontal electrophoresis chamber for ~30 min (1 V/cm at 4°C). The slides were washed with deionized H2O to remove the alkaline buffer, dehydrated in 70% ice–cold EtOH and air-dried overnight. Slides were stained with SYBR-Green and examined by microscopy. Tail length (TL) was used to quantify the DNA damage. Image analysis and quantification has been performed with ImageJ.

HT29 [5] = assay: COMET assay, DNA damage by tail length; format: cell-based, human; conditions: 20 μM, 48 h
Protocol: as §2

HT29 [6] = assay: CellTiter-Glo Luminescent Cell Viability (cell proliferation) assay; format: cell-based, human
Protocol: (§3) Confluent monolayers of cells were trypsinized, and 10,000 cells suspended in 200 μl of medium were added to each well of the 96-well plate. […] The proliferation of the cells was determined using the CellTiter-Glo Luminescent Cell Viability Assay kit (Promega).

HCT8 [7] = assay: as above; format: cell-based, human; conditions: for IC50: Homo sapiens, HCT-8, Figure 5B-D, HCT8 (low GLI1 expression), unit inferred, x-axis in μM
Protocol: as §3

BRAF^V600E variant = tested on: BRAF^V600E variant; parameters: method as in PMID 26460303; conditions: single agent, BRAF^V600E CRC patients; cited from earlier work
NBS1 mRNA = NBS1 mRNA qRT-PCR in HT29 cells; format: cell-based, human; conditions: GANT61 as early as 24 h post treatment
Protocol: Total RNA was extracted by Invitrogen™ PureLink™ RNA Mini Kit (Fisher scientific) and cDNAs were synthesized with the ThermoScript reverse transcriptional system. qRT-PCR was performed to assess the enrichment of the specific proteins along the NBS1 ORF using specific primer pairs: NBS1-primer-1-F:[…],NBS1-primer-1-R: […]. Human GAPDH cDNA was used as an internal control.

[8] = parameters: method as in PMID 29338454; conditions: cited from earlier work
MRN complex = assay: Confocal microscopy, NBS1 signal and NBS1/MRE11 co-localization in HT29 cells; format: cell-based, human
Protocol: Cells were plated at a density of 50,000 cells/well in six-well plates on coverslips and allowed to attach overnight. Media was removed and cells were treated with/without GANT61 (20 μM) for 48 h. Coverslips were removed and placed in a humidity chamber for fixation by absolute methanol for 10 min at 4°C. Cells were permeabilized with acetone for 1 min at 4°C. After washing with PBS × 3, cells were incubated with the diluted primary antibody overnight at 4°C. Cells were subsequently washed x 3 and incubated with appropriate secondary antibody at room temperature in the dark for 1 h. After washing with PBS, cell nuclei were stained with DAPI at RT for 5–10 min. Confocal images were acquired on a Nikon A1 laser confocal system with a Nikon Eclipse Ti microscope and a 60X Plan Apo objective. Lasers used were 405 nm for blue, 488 nm for green, and 561 nm for red. NIS Elements AR 4.5000 software was used to acquire Z-stacks of each channel sequentially to avoid spectral cross talk. Each slice was captured at a 0.15 μm step. Primary antibodies used were γH2AX (Millipore 1:200), NBS1 (Novus 1:200), and MRE11 (Cell Signaling 1:200). The co-localization index for specific foci and fluorescent intensity were calculated by ImageJ.

GLI1 = biological target: T1, GLI1 (Homo sapiens, UniProt P08151); assay: ChIP assay, GLI1 enrichment on the NBS1 promoter in HT29 cells; format: cell-based; conditions: HT29, 20 μM, 24 h
T1 construct: HT29, which express GLI1 and have high basal NBS1 expression; endogenous in cells; host or cells: HT29
T1 sequence (P08151 1-1106): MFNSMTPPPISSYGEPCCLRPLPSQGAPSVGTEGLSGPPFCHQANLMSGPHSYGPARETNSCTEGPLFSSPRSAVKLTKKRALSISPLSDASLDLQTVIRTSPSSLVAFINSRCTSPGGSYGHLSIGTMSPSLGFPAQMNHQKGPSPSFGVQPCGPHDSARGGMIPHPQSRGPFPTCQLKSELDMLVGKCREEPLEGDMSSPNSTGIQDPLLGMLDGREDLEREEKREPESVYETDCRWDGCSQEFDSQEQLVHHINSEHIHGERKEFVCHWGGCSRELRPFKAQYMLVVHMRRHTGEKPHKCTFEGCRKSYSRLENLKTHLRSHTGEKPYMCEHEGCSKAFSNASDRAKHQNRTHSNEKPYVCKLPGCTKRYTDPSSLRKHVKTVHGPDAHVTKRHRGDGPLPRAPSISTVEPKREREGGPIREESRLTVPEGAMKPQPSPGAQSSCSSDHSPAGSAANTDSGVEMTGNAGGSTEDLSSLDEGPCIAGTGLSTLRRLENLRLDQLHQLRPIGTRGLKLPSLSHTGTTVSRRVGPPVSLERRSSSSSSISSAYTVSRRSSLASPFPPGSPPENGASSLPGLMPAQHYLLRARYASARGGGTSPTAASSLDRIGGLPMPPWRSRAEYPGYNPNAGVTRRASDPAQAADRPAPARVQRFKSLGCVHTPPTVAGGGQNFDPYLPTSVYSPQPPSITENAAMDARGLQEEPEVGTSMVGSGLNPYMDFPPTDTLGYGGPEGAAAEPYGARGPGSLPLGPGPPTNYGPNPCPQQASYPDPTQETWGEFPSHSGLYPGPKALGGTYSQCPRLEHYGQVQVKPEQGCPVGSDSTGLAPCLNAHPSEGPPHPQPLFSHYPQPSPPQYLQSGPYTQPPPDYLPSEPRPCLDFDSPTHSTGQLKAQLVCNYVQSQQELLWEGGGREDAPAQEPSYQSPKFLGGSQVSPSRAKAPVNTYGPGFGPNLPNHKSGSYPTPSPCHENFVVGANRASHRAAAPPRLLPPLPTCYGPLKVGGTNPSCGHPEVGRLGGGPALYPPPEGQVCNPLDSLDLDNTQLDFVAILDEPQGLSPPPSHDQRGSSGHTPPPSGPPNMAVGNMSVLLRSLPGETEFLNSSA
Protocol: HT29 cells (2 × 10^6) were seeded in T75 flasks. After overnight attachment, cells were treated with/without GANT61 (20 μM) or SRI-38832 (20 μM) for 24 h. The cells were trypsinized, washed with 1x PBS and fixed with 1.1% formaldehyde for 10 min at RT. Glycine (0.125 M) was added to stop the reaction. Cells were washed with PBS × 1 and lysed using the ChIP kit according to the manufacturer's instructions (Abcam, Ab500). To fragment the DNA, the cells were sonicated (30 s with 30 s cooling repeatedly for 15 cycles) to obtain fragmented DNA from 100 bp to 1 kB which was verified by agarose gel migration. Lysates were subjected to immunoprecipitation overnight at 4°C with 10 μg of anti-human antibodies for GLI1 (Novus) and Histone H3 for positive control provided by the Abcam ChIP kit. The complex was subsequently incubated with Dynabeads protein G (Invitrogen) for 2 h, 4°C, on a rotating wheel. Beads were washed for 10 min at 4°C with low salt buffer (2x TE, 150 mM NaCl, 1% Triton X-100, 0.1% SDS). Beads were then washed for 10 min at 4°C with high salt buffer (2x TE, 500 mM NaCl, 1% Triton X-100, 0.1% SDS). Next, beads were washed for 10 min at 4° with LiCl buffer (1x TE, 1% NP-40, 0.25 M LiCl, 1% deoxycholate). […]

[9] = Homo sapiens, HT-29, Figure 5B-D, HT29 (high GLI1 expression), unit inferred, x-axis in μM
[10] = Homo sapiens, HT-29, Figure 5E, comparison on HT29, unit inferred
[11] = Homo sapiens, HT-29, HT29, values in running text

SMILES: O=c1[nH]cc(F)c(=O)[nH]1 [5-FU, 5-fluorouracil]
- sensitivity to 5-FU treatment (cell death) (HCT116 [1]): highly sensitive
- sensitivity to 5-FU treatment (cell death) (SW480): highly sensitive
- sensitivity to 5-FU treatment (cell death) (HCT8 [2]): resistant
- overall response rate (CRC): 10–15%
- sensitivity to 5-FU treatment (cell death) (HT29 [3]; 10 and 20 μM, 72 h, high GLI1 and NBS1): resistant
- apoptotic cells after 5-FU treatment (HT29 [3]; shGLI1 HT29 cells): about 60%
- apoptotic cells after 5-FU treatment (HT29 [3]; siNBS1 HT29 cells): Over 40%
- dead cells after 5-FU treatment (HT29 [3]; vector HT29 cells (shGLI1 experiment)): 20%
- expression of MRE11 and RAD50 (NBS1): did not result in any significant decreases
- total NBS1 protein level (NBS1): did not result in any significant decreases
- tail length relative to control (HCT116 [4]): about 3.5 time of control
- induction of DNA damage (comet assay) (HT29 [5]): did not
- IC50 (HT29 [6]; [9]): 528 µM
- IC50 (HT29 [6]; [10]): 525 µM
- IC50 (HT29 [6]; [11]): 625 µM
- IC50 in HCT8 lower than in HT29 (HCT8 [7]; HCT8 vs HT29): 5 fold
- IC50 (HCT8 [7]): 110 µM

SMILES: CCCS(=O)(=O)Nc1ccc(F)c(C(=O)c2c[nH]c3ncc(-c4ccc(Cl)cc4)cc23)c1F [Vemurafenib]
- response rate (BRAF^V600E variant): < 5%

- IC50 higher than GANT61 (HT29 [6]; HT29 cells): 4 fold
- IC50 (HT29 [6]; [9]): 78.7 µM
- IC50 (HT29 [6]; [10]): 81.4 µM
- IC50 (HT29 [6]; [11]): ~80 µM
- IC50 (HCT8 [7]): 80.5 µM
SMILES: CS(=O)(=O)c1ccc(C(=O)Nc2ccc(Cl)c(-c3ccccn3)c2)c(Cl)c1 [Vismodegib]

SMILES: CN(C)c1ccccc1CN1CCCN(Cc2ccccc2N(C)C)C1c1ccncc1 [GANT61]
- NBS1 mRNA level (NBS1 mRNA): significantly decreased
- cells rescued from apoptosis after GANT61 treatment by overexpression of any NBS1 vector (HT29 [3]; GANT61 20 μM, 72 h, NBS1, S343A or S343E overexpressing HT29): ~ 25%
- apoptotic HT29 cells (HT29 [3]; time-course, 48 h of treatment): ~40%
- stability in vivo [8]: hydrolyzed and loses biological activity in vivo
- expression of MRE11 and RAD50 (NBS1): did not substantially alter
- total NBS1 protein level (NBS1): significantly decreased
- γ-H2AX level (NBS1): increased levels
- co-localization of NBS1 and MRE11 (MRN complex; HT29, 20 μM): significant decrease
- fluorescent signal of NBS1 (MRN complex; HT29, 20 μM (24 h in text, 48 h in legend and method)): significantly reduced
- tail length relative to control (HT29 [5]): 2.5 time of control
- GLI1 binding enrichment on the NBS1 promoter (GLI1): significantly reduced
- IC50 (HT29 [6]; Figure 6A, HT29, unit inferred): 22 µM
- IC50 (HT29 [6]; HT29, values in running text): 21.9 µM and 21 µM
